# Assay results: patent US20250325505A1, “COMPOSITION COMPRISING CREATINE FOR USE IN THE TREATMENT OF BREATHING DIFFICULTIES” (Alzchem Trostberg GmbH, priority 2022, published 2025)
# Where two headings read alike, the source gives them in different places.
# Columns and labels:
# Post-COVID patients [1] = experiment: Multidimensional fatigue inventory test (MFI-20), Example 1; format: in vivo, human; conditions: 4 g creatine monohydrate per day
# Procedure: (§1) The patient-reported outcomes for COVID-19-related signs and symptoms (e.g., breathing difficulties, lung pain, body aches,) were evaluated with VAS scale Table 3). Fatigue, comprising the conditions of the group general fatigue, physical fatigue, metal fatigue, reduced activity, and reduced motivation, was evaluated with a multidimensional fatigue inventory test (MFI-20 test, Smets E. M. et al., J. Psychosom. Res. 1995, 39(3), 315).
# Thus, the higher the score, the higher the respective symptom is experienced by the interviewed patient. As a consequence, the lower the value given, the better is the effect in mitigation of the respective symptom.
# Post-COVID patients [2] = experiment: Patient-reported COVID-19-related symptoms, VAS scale, Example 1; format: in vivo, human; conditions: for Body Aches (VAS scale) / Breathing difficulties (VAS scale) / Lung pain (VAS scale): 4 g creatine monohydrate per day
# Procedure: as §1
# Post-COVID patients [3] = experiment: Side effects, Example 1; format: in vivo, human; conditions: 4 g creatine monohydrate per day
# Procedure: The number of participants who were randomly assigned, received intended treatment, and were analyzed for the primary outcome at this time was twelve in total, six in experimental group and six in control group.
# Post-COVID patients [4] = experiment: Multidimensional fatigue inventory test (MFI-20), Example 2; format: in vivo, human; conditions: 4 g creatine monohydrate per day plus breathing exercise
# Procedure: as §1
# Post-COVID patients [5] = experiment: Patient-reported symptoms, VAS scale, Example 2; format: in vivo, human; conditions: for Breathing difficulties (VAS scale) / Lung malaise (VAS scale) / Lung pain (VAS scale): 4 g creatine monohydrate per day plus breathing exercise
# Procedure: as §1
# Post-COVID patients [6] = experiment: Side effects, Example 2; format: in vivo, human; conditions: 4 g creatine monohydrate per day plus breathing exercise, 3-month
# Excerpt: The changes in study outcomes during the trial are depicted in Table 5 and 6.
# Post-COVID patients [7] = experiment: Time to exhaustion, incremental treadmill test, creatine vs placebo; format: in vivo, human; conditions: creatine vs placebo study; for Time to exhaustion: treadmill
# Procedure: (§2) The time to exhaustion of the patients was evaluated by an incremental test until exhaustion on a motorized treadmill. Speed and gradient of the treadmill are increased every third minute, starting at 2.7 km/h (1.7 miles per hour) at a 10% gradient and rising at stage 7 to 9.7 km/h (6 miles per hour) at 22% gradient (Will P. M. and Walter J. D., Am Heart. J., 1999 December, 138, 1033).
# Post-COVID patients [8] = experiment: Time to exhaustion, incremental treadmill test, creatine plus breathing exercise; format: in vivo, human; conditions: for Time to exhaustion: treadmill
# Procedure: as §2
# PCFS patients [9] = experiment: Fatigue scores, Example 4; format: in vivo, human; design: key to General fatigue score / Physical fatigue score / Mental fatigue score / Reduced activity score / Reduced motivation score: MFI-20 multidimensional fatigue inventory subscale scores; conditions: for General fatigue score / Mental fatigue score / Physical fatigue score / Reduced activity score / Reduced motivation score: creatine 8 g per day or glucose 3 g per day
# Procedure: The patient-reported outcomes for COVID-19-related signs and symptoms (e.g., breathing difficulties, lung pain, body aches,) were evaluated with VAS scale Table 3). Fatigue, comprising the conditions of the group general fatigue, physical fatigue, metal fatigue, reduced activity, and reduced motivation, was evaluated with a multidimensional fatigue inventory test (MFI-20 test, Smets E. M. et al., J. Psychosom. Res. 1995, 39(3), 315). […]
# PCFS patients [10] = experiment: Patient-reported symptoms, VAS scale, Example 4; format: in vivo, human; conditions: for Body Aches (VAS scale) / Breathing difficulties (VAS scale) / Lung pain (VAS scale): creatine 8 g per day or glucose 3 g per day
# Procedure: The patient-reported outcomes for COVID-19-related signs and symptoms (e.g., breathing difficulties, lung pain, body aches and post viral fatigue) were evaluated with VAS scale (Tables 10 and 11).
# The Cohen's effect sizes (d) in the creatine group for all outcomes evaluated and reproduced in Table 12 and FIG. 2. The effects are classified as small (d=0.2), medium (d=0.5, dashed line), and large (d≥0.8). Missing values are due to a statistical limitation in calculating effect sizes when pre and/or post values equal zero. Abbreviations: GF, general fatigue; PF, physical fatigue; RM, reduced motivation; RA, reduced activity; MF, mental fatigue; BOA, body aches; BRD, breathing difficulties; LUP, lung pain; and MAL, malaise.
# [11] = human, in vivo
# [12] = both, human, in vivo, 3 months
# [13] = normal healthy population after creatine supplementation; cited from earlier work
# [14] = creatine group, 8 g per day, 8 weeks
smiles,measurement,setting,value
"CN(CC(=O)O)C(=N)N.O [Creatine, creatine monohydrate]",General fatigue score,Post-COVID patients [1]; 3 months,11.3
same,Mental fatigue score,Post-COVID patients [1]; 3 months,11.2
same,Physical fatigue score,Post-COVID patients [1]; 3 months,12.7
same,Reduced activity score,Post-COVID patients [1]; 3 months,12.0
same,Reduced motivation score,Post-COVID patients [1]; 3 months,13.0
same,General fatigue score,Post-COVID patients [1]; 6 months,12.7
same,Mental fatigue score,Post-COVID patients [1]; 6 months,10.5
same,Physical fatigue score,Post-COVID patients [1]; 6 months,13.2
same,Reduced activity score,Post-COVID patients [1]; 6 months,12.5
same,Reduced motivation score,Post-COVID patients [1]; 6 months,12.5
same,General fatigue score,Post-COVID patients [1]; Baseline,12.0
same,Mental fatigue score,Post-COVID patients [1]; Baseline,12.3
same,Physical fatigue score,Post-COVID patients [1]; Baseline,13.5
same,Reduced activity score,Post-COVID patients [1]; Baseline,11.5
same,Reduced motivation score,Post-COVID patients [1]; Baseline,13.0
same,Body Aches (VAS scale),Post-COVID patients [2]; 3 months,1.2
same,Breathing difficulties (VAS scale),Post-COVID patients [2]; 3 months,0.5
same,Lung pain (VAS scale),Post-COVID patients [2]; 3 months,0.5
same,Body Aches (VAS scale),Post-COVID patients [2]; 6-months,0.0
same,Breathing difficulties (VAS scale),Post-COVID patients [2]; 6-months,0.0
same,Lung pain (VAS scale),Post-COVID patients [2]; 6-months,0.0
same,Body Aches (VAS scale),Post-COVID patients [2]; Baseline,4.5
same,Breathing difficulties (VAS scale),Post-COVID patients [2]; Baseline,2.3
same,Lung pain (VAS scale),Post-COVID patients [2]; Baseline,2.3
same,Body aches reduced,Post-COVID patients [2]; after 3 months,73.3%
same,Lung pain,Post-COVID patients [2]; after 3 months,reduced significantly
same,breathing difficulties (dyspnea) reduced,Post-COVID patients [2]; after 3 months,78%
same,"Cohen's effect size (d), body aches",Post-COVID patients [2]; at 3-month,1.77
same,"Cohen's effect size (d), breathing difficulties",Post-COVID patients [2]; at 3-month,0.89
same,"Cohen's effect size (d), body aches",Post-COVID patients [2]; at 6-month,3.03
same,"Cohen's effect size (d), breathing difficulties",Post-COVID patients [2]; at 6-month,1.25
same,"Cohen's effect size (d), lung pain",Post-COVID patients [2]; at 6-month,0.99
same,side effects,Post-COVID patients [3],no major side effects
same,General fatigue score,Post-COVID patients [4]; 3 months,12.3
same,Mental fatigue score,Post-COVID patients [4]; 3 months,11.5
same,Physical fatigue score,Post-COVID patients [4]; 3 months,12.2
same,Reduced activity score,Post-COVID patients [4]; 3 months,12.8
same,Reduced motivation score,Post-COVID patients [4]; 3 months,12.8
same,General fatigue score,Post-COVID patients [4]; Baseline,11.5
same,Mental fatigue score,Post-COVID patients [4]; Baseline,11.8
same,Physical fatigue score,Post-COVID patients [4]; Baseline,12.3
same,Reduced activity score,Post-COVID patients [4]; Baseline,12.5
same,Reduced motivation score,Post-COVID patients [4]; Baseline,13.5
same,Cohen's effect size for lung malaise,Post-COVID patients [5]; 3-month follow up,2.97
same,Breathing difficulties (VAS scale),Post-COVID patients [5]; 3 months,0.0
same,Lung malaise (VAS scale),Post-COVID patients [5]; 3 months,1.0
same,Lung pain (VAS scale),Post-COVID patients [5]; 3 months,0.0
same,Breathing difficulties (VAS scale),Post-COVID patients [5]; Baseline,1.5
same,Lung malaise (VAS scale),Post-COVID patients [5]; Baseline,6.3
same,Lung pain (VAS scale),Post-COVID patients [5]; Baseline,0.5
same,lung malaise reduced,"Post-COVID patients [5]; creatine plus breathing exercise, 3-month follow up",84%
same,side effects / tolerability,Post-COVID patients [6],well-tolerated
same,stage achieved in the treadmill test,Post-COVID patients [7],6
same,time to exhaustion increased,Post-COVID patients [7]; matches 6-months vs baseline of Table 7,7.3%
same,Time to exhaustion,Post-COVID patients [7]; 3-months,922 s
same,Time to exhaustion,Post-COVID patients [7]; 6-months,959 s
same,Time to exhaustion,Post-COVID patients [7]; Baseline,894 s
same,Cohen's effect size for time to exhaustion,Post-COVID patients [8]; creatine monohydrate plus breathing exercise,0.36
same,stage reached in the treadmill test,Post-COVID patients [8]; creatine plus breathing exercise study,6
same,Time to exhaustion,"Post-COVID patients [8]; creatine plus breathing exercise study, 3-months",921 s
same,Time to exhaustion,"Post-COVID patients [8]; creatine plus breathing exercise study, Baseline",867 s
same,mean time to exhaustion improved,"Post-COVID patients [8]; experimental group, post-administration (3 months)",54 s
same,General fatigue score,PCFS patients [9]; 8 weeks,12.0
same,Mental fatigue score,PCFS patients [9]; 8 weeks,12.2
same,Physical fatigue score,PCFS patients [9]; 8 weeks,11.4
same,Reduced activity score,PCFS patients [9]; 8 weeks,12.0
same,Reduced motivation score,PCFS patients [9]; 8 weeks,10.3
same,General fatigue score,PCFS patients [9]; Baseline,12.6
same,Mental fatigue score,PCFS patients [9]; Baseline,13.4
same,Physical fatigue score,PCFS patients [9]; Baseline,12.2
same,Reduced activity score,PCFS patients [9]; Baseline,13.6
same,Reduced motivation score,PCFS patients [9]; Baseline,11.6
same,"Cohen's effect (d), General Fatigue",PCFS patients [9]; [14],0.44
same,"Cohen's effect (d), Physical Fatigue (PF)",PCFS patients [9]; [14],0.83
same,Cohen's effect size (d) for reducing body aches,PCFS patients [10]; 8-week follow-up,> 0.80
same,Cohen's effect size (d) for reducing breathing difficulties,PCFS patients [10]; 8-week follow-up,> 0.80
same,Cohen's effect size (d) for reducing lung malaise,PCFS patients [10]; 8-week follow-up,> 0.80
same,Body aches reduced,PCFS patients [10]; after 8 weeks,71%
same,Lung pain reduced,PCFS patients [10]; after 8 weeks,67%
same,breathing difficulties (dyspnea) reduced,PCFS patients [10]; after 8 weeks,85%
same,Body Aches (VAS scale),PCFS patients [10]; 8 weeks,0.8
same,Breathing difficulties (VAS scale),PCFS patients [10]; 8 weeks,0.4
same,Lung pain (VAS scale),PCFS patients [10]; 8 weeks,0.6
same,Body Aches (VAS scale),PCFS patients [10]; Baseline,2.8
same,Breathing difficulties (VAS scale),PCFS patients [10]; Baseline,2.6
same,Lung pain (VAS scale),PCFS patients [10]; Baseline,1.8
same,"Cohen's effect (d), Body aches (BOA)",PCFS patients [10]; [14],1.11
same,"Cohen's effect (d), Lung pain (LUP)",PCFS patients [10]; [14],0.64
same,"Total creatine, Left paracentral grey matter",[11],6.7 ± 0.6 mM
same,"Total creatine, Right paracentral grey matter",[11],6.8 ± 0.4 mM
same,"Cohen's effect size (d), increased brain creatine level in left parietal white matter",[11]; 3 months,0.92
same,"Cohen's effect size (d), increased brain creatine level in parietal white matter",[11]; 3 months,1.99
same,"Cohen's effect size (d), increased brain creatine level in right frontal white matter",[11]; 3 months,1.25
same,"Cohen's effect size (d), increased brain creatine level in right paracentral grey matter",[11]; 3 months,0.88
same,"Cohen's effect size (d), increased brain creatine level in right parietal messial grey matter",[11]; 3 months,1.17
same,"Cohen's effect size (d), increased brain creatine level in thalamus",[11]; 3 months,0.82
same,"Total creatine, Left paracentral grey matter",[11]; 3 months,7.3 ± 0.9 mM
same,"Total creatine, Right paracentral grey matter",[11]; 3 months,7.2 ± 0.5 mM
same,"Cohen's effect size (d), increased brain creatine level in left parietal messial grey matter",[11]; 6 months,0.84
same,"Cohen's effect size (d), increased brain creatine level in left parietal white matter",[11]; 6 months,1.17
same,"Cohen's effect size (d), increased brain creatine level in parietal white matter",[11]; 6 months,1.74
same,"Cohen's effect size (d), increased brain creatine level in right frontal white matter",[11]; 6 months,1.32
same,"Cohen's effect size (d), increased brain creatine level in right parietal messial grey matter",[11]; 6 months,1.06
same,"Total creatine, Left paracentral grey matter",[11]; 6 months,7.1 ± 0.7 mM
same,"Total creatine, Right paracentral grey matter",[11]; 6 months,7.0 ± 0.7 mM
same,"Cohen's effect size (d) for creatine increment, vastus medialis muscle",[12],0.77
same,increase of creatine in the brain,[13],≤ 5%
